Assay results as given in the supplement of paper PMC4976141.

test system: PC9; assay: cell count fold change with erlotinib, miRNA mimic vs non-targeting control (log2 ratio); higher = more drug-tolerant survivors than NTC; conditions: erlotinib 1 µM; 72 h drug + 72 h drug-free recovery; perturbation: miRNA mimic

Sequence	cell count fold change with erlotinib
UUCUCCAAAAGAAAGCACUUUCUG	-1.65
UCGGAUCCGUCUGAGCUUGGCU	0.402
UUGUACAUGGUAGGCUUUCAUU	-3.02
AUGUAUGUGUGCAUGUGCAUG	0.321
UACGUCAUCGUUGUCAUCGUCA	-0.419
CCCCCACAACCGCGCUUGACUAGCU	-0.523
AGGAUGAGCAAAGAAAGUAGAUU	-2.25
CAAAGCGCUUCCCUUUGGAGC	-0.111
CUGCAAAGGGAAGCCCUUUC	-3.43
AUCAUAGAGGAAAAUCCACGU	-3.73
UGGUUUACCGUCCCACAUACAU	0.24
UCCCUGUUCGGGCGCCA	-3.09
GAAAGCGCUUCCCUUUGCUGGA	-0.859
UGAGAACCACGUCUGCUCUGAG	-1.74
UAUGGCUUUUUAUUCCUAUGUGA	-1.4
UACUCAGGAGAGUGGCAAUCAC	-0.848
CUCUAGAGGGAAGCACUUUCUC	-0.525
UGGUGCGGAGAGGGCCCACAGUG	-1.34
UUUCCAUAGGUGAUGAGUCAC	-0.48
UUCCUAUGCAUAUACUUCUUUG	-1.18
UAGCUUAUCAGACUGAUGUUGA	-2.58
CAUCUUACUGGGCAGCAUUGGA	-2.32

Sequence	cell count fold change with erlotinib
AAAAACUGUAAUUACUUUU	0.031
GUGCAUUGCUGUUGCAUUGC	-2.3
GUGAAUUACCGAAGGGCCAUAA	-2.07
GUGAGGACUCGGGAGGUGG	-3.05
UAAGGCACGCGGUGAAUGCC	0.453
UAGCAGCACGUAAAUAUUGGCG	-2.26
AUGCUGACAUAUUUACUAGAGG	-1.82
AACAUUCAACGCUGUCGGUGAGU	-3.99
AGGCGGAGACUUGGGCAAUUG	-3.29
ACGGAUGUUUGAGCAUGUGCUA	-2.45
AGUGCCUGAGGGAGUAAGAGCCC	-2.56
GCAUGGGUGGUUCAGUGG	0.259
CGUGUAUUUGACAAGCUGAGUU	-5.21
UAAGGUGCAUCUAGUGCAGUUAG	-4.47
GAUUAGGGUGCUUAGCUGUUAA	-2.53
AGGGCUUAGCUGCUUGUGAGCA	-3.74
CGGGGCAGCUCAGUACAGGAU	0.97
UGAGACCUCUGGGUUCUGAGCU	-0.719
UGCCUGUCUACACUUGCUGUGC	-1.78
ACUGCAUUAUGAGCACUUAAAG	-0.728
AGUUUUGCAGGUUUGCAUUUCA	-0.889
AGCAGCAUUGUACAGGGCUAUGA	-0.577

Sequence	cell count fold change with erlotinib
UGUUUUGAUAACAGUAAUGU	-1.27
UUCAACGGGUAUUUAUUGAGCA	-3.32
AGGCAGUGUAGUUAGCUGAUUGC	1.35
CAUCUUCCAGUACAGUGUUGGA	0.0817
UAAGUGCUUCCAUGCUU	-0.506
AGUUUUGCAUAGUUGCACUACA	-2.57
UGAGCGCCUCGACGACAGAGCCG	-1.23
AAGCAGCUGCCUCUGAGGC	0.0583
UUGUGUCAAUAUGCGAUGAUGU	-3.39
AAGCCCUUACCCCAAAAAGCAU	-1.75
UAGAGUUACACCCUGGGAGUUA	-3.48
CAGCAGCAAUUCAUGUUUUGAA	-3.25
CUGGUUUCACAUGGUGGCUUAG	-2.28
AUCAUGAUGGGCUCCUCGGUGU	-3.05
UUGCAUAUGUAGGAUGUCCCAU	-1.06
CUCUAGAGGGAAGCGCUUUCUG	-1.78
AAACCUGUGUUGUUCAAGAGUC	-0.0774
AACAUAGAGGAAAUUCCACGU	-1.33
UCGAGGAGCUCACAGUCUAGU	-0.737
UGUAAACAUCCUACACUCUCAGC	0.35
ACUGUAGUAUGGGCACUUCCAG	-1.17
